ChEMBL document CHEMBL4715829, “Heterodimeric Rifampicin-Tobramycin conjugates break intrinsic resistance of Pseudomonas aeruginosa to doxycycline and chloramphenicol in vitro and in a Galleria mellonella in vivo model” (Eur J Med Chem, 2019)
In brackets after ≈: the same amount, converted by molar mass.

Key:
[1] = test system: Pseudomonas aeruginosa; assay: Antibacterial activity against Pseudomonas aeruginosa PAO1 assessed as reduction in bacterial growth by measuring clindamycin MIC at <=10 uM in presence of clindamycin incubated for 18 hrs by broth microdilution assay based checkerboard assay (reference value: 1024 microg/ml); format: functional; details: dose microM <=10
[2] = test system: Pseudomonas aeruginosa; assay: Antibacterial activity against Pseudomonas aeruginosa PAO1 assessed as fractional inhibitory concentration index in presence of Moxifloxacin incubated for 18 hrs by broth microdilution assay based checkerboard assay; format: functional
[3] = test system: Pseudomonas aeruginosa; assay: Antibacterial activity against Pseudomonas aeruginosa PAO1 assessed as fractional inhibitory concentration index in presence of Fosfomycin incubated for 18 hrs by broth microdilution assay based checkerboard assay; format: functional
[4] = test system: Pseudomonas aeruginosa; assay: Antibacterial activity against Pseudomonas aeruginosa PAO1 assessed as reduction in bacterial growth by measuring ceftazidime MIC at <=10 uM in presence of ceftazidime incubated for 18 hrs by broth microdilution assay based checkerboard assay (reference value: 2 microg/ml); format: functional; details: dose microM <=10
[5] = test system: Pseudomonas aeruginosa; assay: Antibacterial activity against Pseudomonas aeruginosa 750 harboring efflux mutant assessed as reduction in bacterial growth incubated for 18 hrs by broth microdilution assay; format: functional
[6] = test system: Pseudomonas aeruginosa; assay: Antibacterial activity against Pseudomonas aeruginosa ATCC 27853 assessed as reduction in bacterial growth incubated for 18 hrs by broth microdilution assay; format: functional
[7] = test system: Pseudomonas aeruginosa; assay: Antibacterial activity against Pseudomonas aeruginosa PAO1 assessed as fractional inhibitory concentration index in presence of Colistin incubated for 18 hrs by broth microdilution assay based checkerboard assay; format: functional
[8] = test system: Escherichia coli; assay: Antibacterial activity against gentamicin, tobramycin, ciprofloxacin-resistant Escherichia coli ATCC 97615 harboring aac(3')IIa gene assessed as reduction in bacterial growth incubated for 18 hrs by broth microdilution assay; format: functional
[9] = test system: Pseudomonas aeruginosa; assay: Antibacterial activity against Pseudomonas aeruginosa 200 harboring efflux mutant assessed as reduction in bacterial growth incubated for 18 hrs by broth microdilution assay; format: functional
[10] = test system: Streptococcus pneumoniae; assay: Antibacterial activity against Streptococcus pneumoniae ATCC 49619 assessed as reduction in bacterial growth incubated for 18 hrs by broth microdilution assay; format: functional
[11] = test system: Pseudomonas aeruginosa; assay: Antibacterial activity against Pseudomonas aeruginosa PAO1 assessed as reduction in bacterial growth by measuring doxycycline MIC at <=[…] uM in presence of doxycycline incubated for 18 hrs by broth microdilution assay based checkerboard assay (reference value: […] microg/ml); format: functional; details: dose microM <=10
[12] = test system: Pseudomonas aeruginosa; assay: Antibacterial activity against Pseudomonas aeruginosa PAO1 assessed as reduction in bacterial growth by measuring fosfomycin MIC at <=[…] uM in presence of fosfomycin incubated for 18 hrs by broth microdilution assay based checkerboard assay (reference value: […] microg/ml); format: functional; details: dose microM <=10
[13] = test system: Pseudomonas aeruginosa; assay: Antibacterial activity against Pseudomonas aeruginosa PAO1 assessed as reduction in bacterial growth by measuring cefotaxime MIC at <=[…] uM in presence of cefotaxime incubated for 18 hrs by broth microdilution assay based checkerboard assay (reference value: […] microg/ml); format: functional; details: dose microM <=10
[14] = test system: Pseudomonas aeruginosa; assay: Antibacterial activity against Pseudomonas aeruginosa 264-101354 assessed as reduction in bacterial growth incubated for 18 hrs by broth microdilution assay; format: functional
[15] = test system: Pseudomonas aeruginosa; assay: Antibacterial activity against Pseudomonas aeruginosa PAO1 assessed as fractional inhibitory concentration index in presence of Novobiocin incubated for 18 hrs by broth microdilution assay based checkerboard assay; format: functional
[16] = Cytotoxicity against human HEK293 cells assessed as cell viability at <10 uM incubated for 48 hrs by prestoblue assay; format: cell-based; details: read-out: Activity
[17] = test system: Pseudomonas aeruginosa; assay: Antibacterial activity against Pseudomonas aeruginosa PAO1 assessed as reduction in bacterial growth by measuring minocycline MIC at <=10 uM in presence of minocycline incubated for 18 hrs by broth microdilution assay based checkerboard assay (reference value: 8 microg/ml); format: functional; details: dose microM <=10
[18] = test system: Pseudomonas aeruginosa; assay: Antibacterial activity against Pseudomonas aeruginosa PAO1 assessed as fractional inhibitory concentration index in presence of Cefotaxime incubated for 18 hrs by broth microdilution assay based checkerboard assay; format: functional
[19] = test system: Pseudomonas aeruginosa; assay: Antibacterial activity against gentamicin, tobramycin-resistant Pseudomonas aeruginosa CANWARD 96846 assessed as reduction in bacterial growth incubated for 18 hrs by broth microdilution assay; format: functional
[20] = test system: Pseudomonas aeruginosa; assay: Antibacterial activity against Pseudomonas aeruginosa 260-97103 assessed as reduction in bacterial growth incubated for 18 hrs by broth microdilution assay; format: functional
[21] = test system: Pseudomonas aeruginosa; assay: Antibacterial activity against Pseudomonas aeruginosa PAO1 assessed as reduction in bacterial growth by measuring vancomycin MIC at <=10 uM in presence of vancomycin incubated for 18 hrs by broth microdilution assay based checkerboard assay (reference value: 256 microg/ml); format: functional; details: dose microM <=10
[22] = test system: Pseudomonas aeruginosa; assay: Antibacterial activity against Pseudomonas aeruginosa PAO1 assessed as reduction in bacterial growth by measuring aztreonam MIC at <=10 uM in presence of aztreonam incubated for 18 hrs by broth microdilution assay based checkerboard assay (reference value: 4 microg/ml); format: functional; details: dose microM <=10
[23] = test system: Pseudomonas aeruginosa; assay: Antibacterial activity against Pseudomonas aeruginosa PAO1 assessed as reduction in bacterial growth by measuring nitrofurantoin MIC at <=10 uM in presence of nitrofurantoin incubated for 18 hrs by broth microdilution assay based checkerboard assay (reference value: 512 microg/ml); format: functional; details: dose microM <=10
[24] = test system: Escherichia coli; assay: Antibacterial activity against gentamicin-resistant Escherichia coli CAN-ICU 61714 assessed as reduction in bacterial growth incubated for 18 hrs by broth microdilution assay; format: functional
[25] = test system: Pseudomonas aeruginosa; assay: Antibacterial activity against Pseudomonas aeruginosa PAO1 assessed as fractional inhibitory concentration index in presence of Tobramycin incubated for 18 hrs by broth microdilution assay based checkerboard assay; format: functional
[26] = test system: Pseudomonas aeruginosa; assay: Antibacterial activity against Pseudomonas aeruginosa PAO1 assessed as fractional inhibitory concentration index in presence of Erythromycin incubated for 18 hrs by broth microdilution assay based checkerboard assay; format: functional
[27] = test system: Pseudomonas aeruginosa; assay: Antibacterial activity against Pseudomonas aeruginosa PAO1 assessed as reduction in bacterial growth by measuring rifampicin MIC at <=[…] uM in presence of rifampicin incubated for 18 hrs by broth microdilution assay based checkerboard assay (reference value: […] microg/ml); format: functional; details: dose microM <=10
[28] = test system: Pseudomonas aeruginosa; assay: Antibacterial activity against Pseudomonas aeruginosa PAO1 assessed as fractional inhibitory concentration index in presence of Vancomycin incubated for 18 hrs by broth microdilution assay based checkerboard assay; format: functional
[29] = test system: Pseudomonas aeruginosa; assay: Antibacterial activity against Pseudomonas aeruginosa 101243 assessed as fractional inhibitory concentration index in presence of doxycycline incubated for 18 hrs by broth microdilution assay; format: functional
[30] = test system: Pseudomonas aeruginosa; assay: Antibacterial activity against Pseudomonas aeruginosa 262-101856 assessed as fractional inhibitory concentration index in presence of chloramphenicol incubated for 18 hrs by broth microdilution assay; format: functional
[31] = test system: Pseudomonas aeruginosa; assay: Antibacterial activity against Pseudomonas aeruginosa 264-101354 assessed as fractional inhibitory concentration index in presence of chloramphenicol incubated for 18 hrs by broth microdilution assay; format: functional
[32] = test system: Pseudomonas aeruginosa; assay: Antibacterial activity against Pseudomonas aeruginosa 100036 assessed as fractional inhibitory concentration index in presence of chloramphenicol incubated for 18 hrs by broth microdilution assay; format: functional

CO[C@H]1/C=C/O[C@@]2(C)Oc3c(C)c(O)c4c(O)c(c(/C=N/N5CCN(Cc6cn(CCCCO[C@@H]7[C@@H](O[C@H]8O[C@H](CO)[C@@H](O)[C@H](N)[C@H]8O)[C@H](N)C[C@H](N)[C@H]7O[C@H]7O[C@H](CN)[C@@H](O)C[C@H]7N)nn6)CC5)c(O)c4c3C2=O)NC(=O)/C(C)=C\C=C\[C@H](C)[C@H](O)[C@@H](C)[C@@H](O)[C@@H](C)[C@H](OC(C)=O)[C@@H]1C.O=C(O)C(F)(F)F.O=C(O)C(F)(F)F.O=C(O)C(F)(F)F.O=C(O)C(F)(F)F.O=C(O)C(F)(F)F
MIC [1]: 512 µg/mL | fractional inhibitory concentration index (FICI) [2]: 1.03 | fractional inhibitory concentration index (FICI) [3]: 1.03 | MIC [4]: 2 µg/mL | MIC [5]: > 256 µg/mL | MIC [6]: > 32 µg/mL | fractional inhibitory concentration index (FICI) [7]: 0.53 | MIC [8]: > 32 µg/mL | MIC [9]: 256 µg/mL | MIC [10]: 1 µg/mL | MIC [11]: 1 µg/mL | MIC [12]: 16 µg/mL | MIC [13]: 16 µg/mL | MIC [14]: 256 µg/mL | fractional inhibitory concentration index (FICI) [15]: 0.53 | viability at 48 h [16]: > 90% | MIC [17]: 2 µg/mL | fractional inhibitory concentration index (FICI) [18]: 1.03 | MIC [19]: > 32 µg/mL | MIC [20]: > 128 µg/mL | MIC [21]: 256 µg/mL | MIC [22]: 4 µg/mL | MIC [23]: 512 µg/mL | MIC [24]: > 32 µg/mL | fractional inhibitory concentration index (FICI) [25]: 1.03 | fractional inhibitory concentration index (FICI) [26]: 0.53 | MIC [27]: 4 µg/mL | fractional inhibitory concentration index (FICI) [28]: 1.03

CO[C@H]1/C=C/O[C@@]2(C)Oc3c(C)c(O)c4c(O)c(c(/C=N/N5CCN(C)CC5)c(O)c4c3C2=O)NC(=O)/C(C)=C\C=C\[C@H](C)[C@H](O)[C@@H](C)[C@@H](O)[C@@H](C)[C@H](OC(C)=O)[C@@H]1C [RIFAMPIN]
fractional inhibitory concentration index (FICI) [29]: 1.5 | MIC [5]: 32 µg/mL (≈ 38.9 µM) | MIC [6]: 32 µg/mL (≈ 38.9 µM) | MIC [8]: 16 µg/mL (≈ 19.4 µM) | fractional inhibitory concentration index (FICI) [30]: 1.5 | MIC [9]: 16 µg/mL (≈ 19.4 µM) | MIC [10]: ≤ 0.25 µg/mL | fractional inhibitory concentration index (FICI) [31]: 1.5 | MIC [14]: 16 µg/mL (≈ 19.4 µM) | MIC [19]: 32 µg/mL (≈ 38.9 µM) | MIC [20]: 16 µg/mL (≈ 19.4 µM) | MIC [24]: 8 µg/mL (≈ 9.72 µM) | fractional inhibitory concentration index (FICI) [32]: 1.5
